The subject of test [1] is Streptococcus sp. 'group A'. Briefly: growth inhibition of control SK(-) GAS strain, dose response, counter-screen for streptokinase expression inhibitor project, luminescence, kanamycin, BacTiterGlo, confirmation (AID 1900). Type of test: functional, organism-based. In general terms: The purpose of a counterscreen is to sort out artefacts and off-target activity.
The nature of test [2]: C. albicans growth with fluconazole, confirmation, fluorescence, retest (AID 2467). Type of test: functional, cell-based.
Test [3] in a line: growth suppression of PTEN-null colon cells, dose response, cell-based, HCT116 PTEN knockout (AID 1047).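 Further: HCT116 colon tumor cells with PTEN knocked out; cells exposed to compound for 60 hours before readout; potency for loss of cell viability measured by luminescence.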 The test is classed as functional.
The test system of test [4] is Streptococcus. Briefly: Group A Streptococcus viability loss, dose response, counter-screen for streptokinase expression inhibitor project, luminescence, BacTiterGlo (AID 1915).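 Further: potency for reduction of bacterial viability or growth.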 Type of test: functional, organism-based.
Test [5] is described as follows: THP-1 cell cytotoxicity, dose response, cytotoxicity control for non-replicating M. tuberculosis project (AID 489025). Type of test: functional.
Test [6] in a line: HepG2 cell cytotoxicity, dose response, cytotoxicity control for non-replicating M. tuberculosis project (AID 489018). The note with it: Mycobacterium tuberculosis. The test is classed as functional.
For test [7], the target named is C-C chemokine receptor type 6 (Homo sapiens, UniProt P51684). The test is described as follows: CCR6 receptor antagonists, dose response, cell-based, luminescent beta-arrestin readout (AID 504728). The test is classed as functional.
C-C chemokine receptor type 6, sequence (P51684 whole entry): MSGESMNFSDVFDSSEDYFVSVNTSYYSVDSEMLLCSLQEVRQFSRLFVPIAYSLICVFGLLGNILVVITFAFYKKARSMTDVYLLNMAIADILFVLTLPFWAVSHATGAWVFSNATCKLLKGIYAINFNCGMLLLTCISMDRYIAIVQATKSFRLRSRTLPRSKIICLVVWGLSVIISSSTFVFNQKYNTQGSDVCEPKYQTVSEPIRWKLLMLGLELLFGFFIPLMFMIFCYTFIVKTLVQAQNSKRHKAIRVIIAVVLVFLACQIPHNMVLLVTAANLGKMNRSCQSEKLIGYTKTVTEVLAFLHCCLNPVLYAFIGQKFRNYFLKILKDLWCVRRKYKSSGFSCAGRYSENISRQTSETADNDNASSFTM
Test [8] is described as follows: Vero E6 cell cytotoxicity, dose response, cytotoxicity control for non-replicating M. tuberculosis project, secondary assay (AID 492998). The test is classed as functional, VeroE6. The note with it: Vero C1008.
The target in test [9] is T1, Hexokinase HKDC1 (Homo sapiens, UniProt Q2TB90).
T1 sequence (Q2TB90 whole entry): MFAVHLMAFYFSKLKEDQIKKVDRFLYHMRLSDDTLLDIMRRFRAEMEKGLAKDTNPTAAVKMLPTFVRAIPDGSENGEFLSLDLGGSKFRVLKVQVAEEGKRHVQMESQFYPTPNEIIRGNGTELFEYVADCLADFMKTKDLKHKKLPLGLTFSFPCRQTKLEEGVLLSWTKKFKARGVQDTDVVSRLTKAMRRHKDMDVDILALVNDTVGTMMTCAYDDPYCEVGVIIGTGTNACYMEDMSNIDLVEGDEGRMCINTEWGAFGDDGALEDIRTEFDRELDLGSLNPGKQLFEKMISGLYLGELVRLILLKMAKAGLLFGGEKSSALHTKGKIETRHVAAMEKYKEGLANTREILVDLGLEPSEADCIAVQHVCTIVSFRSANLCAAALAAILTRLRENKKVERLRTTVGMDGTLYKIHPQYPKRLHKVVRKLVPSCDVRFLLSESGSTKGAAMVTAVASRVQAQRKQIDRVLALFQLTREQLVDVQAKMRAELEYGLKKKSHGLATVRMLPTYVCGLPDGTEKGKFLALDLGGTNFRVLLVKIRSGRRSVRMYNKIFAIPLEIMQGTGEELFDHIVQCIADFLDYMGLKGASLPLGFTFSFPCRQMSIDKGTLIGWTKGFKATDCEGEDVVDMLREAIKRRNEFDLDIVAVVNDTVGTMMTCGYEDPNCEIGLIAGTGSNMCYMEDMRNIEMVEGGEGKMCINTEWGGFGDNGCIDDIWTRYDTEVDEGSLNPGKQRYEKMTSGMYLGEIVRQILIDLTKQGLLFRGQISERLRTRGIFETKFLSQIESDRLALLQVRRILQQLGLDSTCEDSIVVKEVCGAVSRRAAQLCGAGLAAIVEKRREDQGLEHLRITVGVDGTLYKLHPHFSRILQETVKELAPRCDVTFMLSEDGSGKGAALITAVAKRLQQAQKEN
The test is described as follows: HKDC1 hexokinase inhibitors, dose response, biochemical, W721R variant (AID 504729). The test is classed as functional.

Test [10] in a line: cells. Type of test: functional.
Test [11] has as its target T2, Replicative DNA helicase DnaB (Mycobacterium tuberculosis, UniProt P9WMR3).
T2 sequence (P9WMR3 whole entry): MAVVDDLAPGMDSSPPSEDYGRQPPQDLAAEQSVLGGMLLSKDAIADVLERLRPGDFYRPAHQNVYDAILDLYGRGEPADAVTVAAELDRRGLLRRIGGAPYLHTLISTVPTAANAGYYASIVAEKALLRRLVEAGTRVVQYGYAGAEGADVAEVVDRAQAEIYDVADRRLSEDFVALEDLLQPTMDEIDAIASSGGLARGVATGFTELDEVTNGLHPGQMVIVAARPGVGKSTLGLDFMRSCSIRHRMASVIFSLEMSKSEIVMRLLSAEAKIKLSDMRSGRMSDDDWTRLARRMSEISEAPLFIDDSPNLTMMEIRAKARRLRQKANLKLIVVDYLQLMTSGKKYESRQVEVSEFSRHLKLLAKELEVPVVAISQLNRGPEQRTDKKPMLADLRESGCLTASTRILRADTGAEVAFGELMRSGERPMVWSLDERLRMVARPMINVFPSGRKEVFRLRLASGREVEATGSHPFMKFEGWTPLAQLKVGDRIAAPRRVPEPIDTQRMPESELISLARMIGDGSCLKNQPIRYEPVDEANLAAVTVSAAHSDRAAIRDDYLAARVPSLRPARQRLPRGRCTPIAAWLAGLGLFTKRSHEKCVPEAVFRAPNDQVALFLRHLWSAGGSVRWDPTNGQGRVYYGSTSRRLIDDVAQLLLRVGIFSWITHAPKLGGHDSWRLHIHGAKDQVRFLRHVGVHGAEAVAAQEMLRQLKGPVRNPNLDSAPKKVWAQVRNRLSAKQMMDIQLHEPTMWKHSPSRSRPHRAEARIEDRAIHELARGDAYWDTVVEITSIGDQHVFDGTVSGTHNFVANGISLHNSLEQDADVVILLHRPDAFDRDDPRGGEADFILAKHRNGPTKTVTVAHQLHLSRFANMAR
The test is described as follows: DnaB intein splicing inhibitors, dose response, biochemical, cell-free fluorescence (AID 449749). Type of test: functional.

SMILES strings stand for the structures. The source made the active and inactive calls.

On to `O=C1C(Nc2ccccc2)=C/C(=N/S(=O)(=O)c2cccs2)c2ccccc21`, for which the EC50 – broadly, the concentration at which the effect is half-maximal – in test [1] was 2.81 µM (active); in [2], 1.35 µM (active); in [3], 4.13 µM (active); in [4] it was 4.21 µM (active). Besides, the CC50 – broadly, the concentration giving 50% cytotoxicity – in test [5] is 1.8 µM (active); in test [6] it was 13.9 µM (active); in [8], 7.43 µM (active). Also, the figures for the IC50 in [7], in test [9] and in test [10] were 34.8 µM (inactive), 4.88 µM (active) and 14.2 µM (active), respectively. In addition, the AC50 (as a rule, the concentration at which the activity in the assay is half-maximal) in [11] was 0.187 µM (active).

Values taken from ChEMBL document CHEMBL1201862, “PubChem BioAssay data set” (2004).
